One test concerns the target mouse Akt1 (Mus musculus, UniProt P31750). To be noted: mouse Akt1, J. Biol. Chem. 275:36108-36115 (2000); cited from earlier work.
Another test deals with Akt. Description: Ki. Here is the method:
Table printed on a drawing sheet, FIG.8
The patent's description of the figure: FIG. 8 represents the minimal length requirement for the peptide inhibitors. Different lengths of peptide inhibitor 2 were synthesized. For some of them, an acetyl group was added to the amino terminal end to increase the stability for cellular assays. These peptides were tested in the Akt assay described herein.
First copying reader's note: Ki values are for length variants of peptide inhibitor 2 tested in the Akt assay; the unit (μM) stands in the cells.
Where the first naming reader finds the target: description_of_the_figure: These peptides were tested in the Akt assay described herein.

The target of a further test is T1, Akt1 (Homo sapiens, UniProt P31749).
T1 construct: made in house; host or cells: baculovirus / insect cells
Nature of the test: in vitro Akt1 kinase assay with biotinylated Bad-derived peptide substrate. To be noted: FIG. 3. The test is classed as biochemical.

The subject of the next test is SGK. Description: kinase selectivity assay, SGK. The test is classed as biochemical. An excerpt:
Enzymes: Akt1 was expressed and purified using a baculoviral system. PKA was purchased from Panvera. CDC2, […] and PKC gamma were purchased from Calbiochem, and SGK and Src were purchased from Upstate Biotechnology (Charlottesvilee, Va.).
Substrates: All substrates were custom synthesized by Genemed Synthesis, Inc. (San Francisco, Calif.) except the Src substrate, which was purchased from Promega (cat#V6480). The substrates had the general structure of Biotin-Ahx-peptide. The Akt assay used […]. The PKA assay used kemptide LRRASLG. The CDC2 assay used PKTPKKAKKL. The SGK assay used RPRAATF. The PKC delta and gamma used neurogranin ERMRPRKRQGSVRRRV. Phosphotidylserine and dioleyl-sn-glycerol were purchased from Avanti Polar Lipids (Alabaster, Ala.). Strepavidin Flash Plates were purchased from Perkin Elmer Life Sciences (Boston, Mass.).
Turning to the kinase selectivity assays, all the enzymes other than Akt were tested in 25 mM Hepes buffer pH 7.4, 10 mM MgCl2, 0.1 mM Na3VO4, 0.5 mM DTT and 0.075 mg/ml Triton X-100. […] Reactions were transferred to Flash Plates, vortexed and incubated at room temperature for 10 min, then washed 3 times with phosphate buffered saline with 0.05% Tween 20 and counted on a TopCount Packard Instruments gamma counter (Packard Instruments, Boston, Mass.). IC50s were calculated using the Assay Explorer software, sigmoidal curve fit by MDL.

Test [1] deals with Akt1-FL (full-length Akt1). Nature of the test: IC50 (Akt1-FL*). Here is the method: Table printed on a drawing sheet, FIG.3B
Head of the field: IC50 (Akt1-FL*)
Footnotes: *FL: FULL-LENGTH
The patent's description of the figure: FIG. 3: FIG. 3A illustrates Akt1 inhibition by the five Akt1 peptide inhibitors. FIG. 3B illustrates the IC50 of the five peptide inhibitors.
First copying reader's note: For peptide 5 the sheet prints a percent value at 128μM in place of an IC50.
Where the first naming reader finds the target: head: IC50 (Akt1-FL*)

No end group written: not given here. Where only a bound is given, the exact number is not on record here.

The values that follow come from patent publication US20040038883A1, “Peptide inhibitors of Akt and uses thereof” (priority 2002, published 2004).

T1 sequence (P31749 whole entry): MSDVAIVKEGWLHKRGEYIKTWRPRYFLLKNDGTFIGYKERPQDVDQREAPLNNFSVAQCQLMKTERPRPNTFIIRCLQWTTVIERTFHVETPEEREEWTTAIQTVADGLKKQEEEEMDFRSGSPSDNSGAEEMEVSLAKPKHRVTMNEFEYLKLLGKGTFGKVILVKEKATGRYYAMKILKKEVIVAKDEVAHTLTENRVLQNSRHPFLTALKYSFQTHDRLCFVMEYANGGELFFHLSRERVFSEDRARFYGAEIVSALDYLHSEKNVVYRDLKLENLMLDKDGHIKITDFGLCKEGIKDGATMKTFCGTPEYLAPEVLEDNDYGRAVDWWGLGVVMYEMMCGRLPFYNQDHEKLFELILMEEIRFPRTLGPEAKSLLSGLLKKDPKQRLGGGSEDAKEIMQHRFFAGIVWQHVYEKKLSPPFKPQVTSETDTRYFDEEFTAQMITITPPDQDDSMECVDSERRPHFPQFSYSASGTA
Sequence of mouse Akt1 (P31750 whole entry): as the sequence (P31749 whole entry) above, with S2N, A50S, T100A, K112R, E117T, K389T, G410N, H415D counted along it

Broadly, the Ki is a measure of affinity in units of concentration, obtained from inhibition or displacement. For the compound ARKRERTYSFGHHA [AKTide-2T], the inhibition constant (Ki) on mouse Akt1 was 12000 nM.
For Ac-ERTYAFGH, on Akt, the Ki was greater than 100000 nM.
`CC(C)C[C@H](NC(=O)[C@H](CCC(=O)O)NC(=O)[C@@H](N)C(C)C)C(=O)N[C@@H](CC(=O)O)C(=O)N1CCC[C@H]1C(=O)N[C@@H](CCC(=O)O)C(=O)N[C@@H](Cc1ccccc1)C(=O)N[C@@H](CCC(=O)O)C(=O)N1CCC[C@H]1C(=O)N[C@@H](CCCNC(=N)N)C(=O)N[C@@H](C)C(=O)N[C@@H](CCCNC(=N)N)C(=O)N[C@@H](CCC(=O)O)C(=O)N[C@@H](CCCNC(=N)N)C(=O)N[C@H](C(=O)N[C@@H](Cc1ccc(O)cc1)C(=O)N[C@@H](CO)C(=O)N[C@@H](Cc1ccccc1)C(=O)NCC(=O)N[C@@H](Cc1c[nH]cn1)C(=O)O)[C@@H](C)O` [Peptide 1]: the “relative potency of Akt1 inhibition (in words)” value at Akt1 is recorded as “most potent inhibitor against Akt1”. In addition, the “inhibition on SGK (in words)” value in the test on SGK was “inhibition was observed”. Further, the inhibitory constant (Ki) on SGK (highest concentration tested 50 μM, 10 μM ATP) was found to be 1000 nM.
A word on the IC50: it is the concentration that inhibits the measured activity by half. Higher therefore signals a need for much substance. The compound VELDPEFEPRARER A Y A F GH [4:] showed an IC50 in test [1] of 210 nM.
With “5: peptide 2 with threonine at position 15 mutated to Asp (VELDPEFEPRARERDYAFGH; Variant of the wildtype Akt Sequence) [Peptide 5]”, the “relative potency of Akt1 inhibition (in words)” value with Akt1 is reported as “least potent inhibitor”.
In test [1], VELDPEFEPRARER T Y D F GH [3:] returned an IC50 of 10600 nM.
FEPRARERTYAFGH came in with a Ki on Akt of 1970 nM.
The same measure, in the same setting: for Ac-DPEFEPRARERTYAFGH the value was 260 nM.
The compound VELDPEFEPRARER T Y S F GH [1:] displayed a half-maximal inhibitory concentration (IC50) in test [1] of 490 nM.
Regarding VELDPEFEPRARER T Y A F GH [2:], it took 280 nM to reach half-maximal inhibition in test [1] (IC50).
Consider Ac-FEPRARERTYAFGH, for which, at Akt, the affinity corresponds to a Ki of 1440 nM.
Ac-RARERTYAFGH: the Ki on Akt stood at 15900 nM.
